Results from patent US12435069B2, “Cocrystals of posaconazole, methods of making and using same” (REGENTS OF THE UNIVERSITY OF MICHIGAN, priority 2019, dated 2025).
Converted amounts (≈) assume the structure as drawn. “And” between values parts separate entries of the source, which are not always exact repeats. Equal values may be shown once. Read-outs that look alike come from different tables or passages of the source.

How the values were obtained:
[1] = Dissolution of drug or cocrystal in biorelevant media (FaSSIF, FeSSIF); assay type: physicochemical; conditions: for Cmax / AUC (area under the dissolution curve): 25 °C; for Cmax: 150 rpm, 3 h, 300 mg dose in 250 mL equivalent; for AUC (area under the dissolution curve): up to 180 min; for Final pH: after dissolution
Method: (§1) Blank FaSSIF (pH 6.50 phosphate buffer) was prepared at room temperature by dissolving 0.683 g of NaOH (pellets), 7.902 g of NaH2PO4·H2O, and 12.372 g NaCl in 2 L of purified deionized (DI) water. The pH was adjusted to 6.50 (±0.04) with 1 M NaOH and 1 M HCl solutions. Blank FeSSIF (pH 5.00 acetate buffer) was prepared at room temperature by dissolving 8.089 g NaOH (pellets), 16.4 mL acetic acid, and 23.748 g NaCl in 2 L of purified DI water. The pH was adjusted to 5.00 (±0.03) with 1 M NaOH and 1 M HCl solutions. FaSSIF and FeSSIF media were prepared by dissolving appropriate amounts of FaSSIF/FeSSIF powder in the blank media according to the manufacturer, then stored at room temperature and used within 48 hours. Blank FaSSGF (pH 1.60 buffer) was prepared at room temperature by dissolving 1.999 g of sodium chloride in 1 L of DI water. The pH was adjusted to 1.60 (±0.05) with 2 M HCl solution.
Dissolution studies of drug or cocrystal were conducted using an overhead stirrer with a glass propeller at 150 rpm over three hours. Based on a 300 mg dose in 250 mL, 36 mg of PSZ drug or 46.6 mg PSZ-4ABA cocrystal (molar equivalent PSZ amount) were added to 30 mL of dissolution media. Dissolution studies were done in FaSSIF and FeSSIF with sieved fractions of drug and cocrystals in a particle size range of 106 to 125 μm. The dissolution experiments were conducted in a water bath at 25.0 (±0.5) ° C. Initial and final solution pH was measured. Aliquots of 0.5 mL were taken with a syringe at time points up to 180 minutes. The solution samples were filtered through syringe filter with PvDF membrane of a pore size of 0.45 μm. The solution concentrations of drug and coformer were analyzed with a Waters HPLC equipped with a photodiode array UV detector. A Waters Atlantis C18 column with the dimension of 5 μm, 250×4.6 mm was used for separation. A gradient method using methanol and water with 0.1% trifluoroacetic acid was run with the flow rate set at 1 mL/min. […] The wavelengths used for the analytes were […] for PSZ, and 287 nm for 4ABA.

[2] = Cocrystal eutectic constant (Keu): coformer and drug concentrations at the eutectic point in buffers and biorelevant media; assay type: physicochemical; conditions: for solubility: thermodynamic from solid, read-out: [PSZ]eu (also solubility of drug at equilibrium); for solubility / Keu ([coformer]eu/[drug]eu) / [4ABA]eu (coformer concentration at the eutectic point): 25 °C
Method: as §1
Cocrystal eutectic constant (Keu), which is well recognized as a key stability and solubility indicator, was determined from measurement of coformer and drug concentrations at the eutectic point, where drug and cocrystal solid phases are in equilibrium with solution according to Keu=[coformer]eu/[drug]eu. An excess amount of PSZ (approximately 200 mg) and 150 mg of PSZ-4ABA were suspended in 3 mL of blank FaSSGF, blank FaSSIF, blank FeSSIF, FaSSIF, or FeSSIF media. Biorelevant media included FaSSIF and FeSSIF. Blank media was the buffer solution in the biorelevant media without the lecithin and bile salt. The suspensions were kept in a water bath at 25.0±0.1° C. and magnetically stirred for up to 72-96 hours. Sample solutions were filtered through 0.45 μm cellulose acetate filters and analyzed by HPLC. The pH was measured and the equilibrium solids were characterized by DSC and PXRD.
Keu is proportional to the cocrystal solubility advantage over drug (SA=Scc/Sdrug), and for a 2:3 cocrystal is given by
[formula] […] Scc is lower than Sdrug when Keu is lower than 1.5. See is equal to Sdrug when Keu is equal to 1.5. The higher the Keu value, the higher is the cocrystal solubility advantage over drug (SA) and Scc.

[3] = cited from earlier work
[4] = in vivo; cited from earlier work

Compound: CC[C@@H]([C@H](C)O)n1ncn(-c2ccc(N3CCN(c4ccc(OC[C@@H]5CO[C@@](Cn6cncn6)(c6ccc(F)cc6F)C5)cc4)CC3)cc2)c1=O [PSZ, Posaconazole]
- Cmax ([1]; FaSSIF): 4.5 ± 0.2 µM
- AUC (area under the dissolution curve) ([1]; FaSSIF): 745 ± 18 µM·min
- Final pH ([1]; FaSSIF): 6.58 ± 0.01
- Cmax ([1]; FeSSIF): 7 ± 3 µM
- AUC (area under the dissolution curve) ([1]; FeSSIF): 1190 ± 104 µM·min
- Final pH ([1]; FeSSIF): 4.95 ± 0.01
- solubility ([2]; aqueous buffer, Blank FaSSIF, final pH 5.12): 0.1 ± 0.04 µM (≈ 0.0701 µg/mL)
- solubility ([2]; aqueous buffer, Blank FeSSIF, final pH 5.11): 0.12 ± 0.02 µM (≈ 0.0841 µg/mL)
- solubility ([2]; simulated gastric fluid, Blank FaSSGF, final pH 1.94): 83 ± 4 µM (≈ 58.2 µg/mL)
- solubility ([2]; FaSSIF, final pH 5.07): 3.6 ± 0.8 µM (≈ 2.52 µg/mL)
- solubility ([2]; FeSSIF, final pH 5.03): 18 ± 5 µM (≈ 12.6 µg/mL)
- Log P [3]: 4.6
- aqueous solubility [3]: < 1 µg/mL
- fraction absorbed [4]: < 30%

Compound: CCC(C(C)O)n1ncn(-c2ccc(N3CCN(c4ccc(OCC5COC(Cn6cncn6)(c6ccc(F)cc6F)C5)cc4)CC3)cc2)c1=O.CCC(C(C)O)n1ncn(-c2ccc(N3CCN(c4ccc(OCC5COC(Cn6cncn6)(c6ccc(F)cc6F)C5)cc4)CC3)cc2)c1=O.Nc1ccc(C(=O)O)cc1.Nc1ccc(C(=O)O)cc1.Nc1ccc(C(=O)O)cc1 (centres unmarked) [PSZ-4ABA, posaconazole-4-aminobenzoic acid (PSZ-4ABA) cocrystal]
- RAUC (AUCPSZ-4ABA/AUCPSZ) ([1]; FaSSIF): 4.1 and 4.1 ± 0.3
- Cmax ([1]; FaSSIF): 48 ± 4 µM
- AUC (area under the dissolution curve) ([1]; FaSSIF): 3052 ± 209 µM·min
- Final pH ([1]; FaSSIF): 6.37 ± 0.01
- RAUC (AUCPSZ-4ABA/AUCPSZ) ([1]; FeSSIF): 13 and 13 ± 4
- Cmax ([1]; FeSSIF): 148 ± 3 µM
- AUC (area under the dissolution curve) ([1]; FeSSIF): 15,670 ± 4612 μM × min
- Final pH ([1]; FeSSIF): 5.01 ± 0.01
- Keu ([coformer]eu/[drug]eu) ([2]; Blank FaSSGF, final pH 1.94): 0.0028 ± 0.0002 ×10^5
- [4ABA]eu (coformer concentration at the eutectic point) ([2]; Blank FaSSGF, final pH 1.94): 27.3 ± 0.4 mM
- Final pH (pH at equilibrium) ([2]; Blank FaSSGF, initial pH 1.60): 1.94 ± 0.01
- Keu ([coformer]eu/[drug]eu) ([2]; Blank FaSSIF, final pH 5.12): 1.7 ± 0.6 ×10^5
- [4ABA]eu (coformer concentration at the eutectic point) ([2]; Blank FaSSIF, final pH 5.12): 17.4 ± 0.1 mM
- Final pH (pH at equilibrium) ([2]; Blank FaSSIF, initial pH 6.55): 5.12 ± 0.03
- Keu ([coformer]eu/[drug]eu) ([2]; Blank FeSSIF, final pH 5.11): 1.2 ± 0.3 ×10^5
- [4ABA]eu (coformer concentration at the eutectic point) ([2]; Blank FeSSIF, final pH 5.11): 14.5 ± 0.2 mM
- Final pH (pH at equilibrium) ([2]; Blank FeSSIF, initial pH 5.03): 5.11 ± 0.01
- Keu ([coformer]eu/[drug]eu) ([2]; FaSSIF, final pH 5.07): 0.06 ± 0.01 ×10^5
- [4ABA]eu (coformer concentration at the eutectic point) ([2]; FaSSIF, final pH 5.07): 20.2 ± 0.4 mM
- Final pH (pH at equilibrium) ([2]; FaSSIF, initial pH 6.50): 5.07 ± 0.04
- Keu ([coformer]eu/[drug]eu) ([2]; FeSSIF, final pH 5.03): 0.010 ± 0.003 ×10^5
- [4ABA]eu (coformer concentration at the eutectic point) ([2]; FeSSIF, final pH 5.03): 17.3 ± 0.5 mM
- Final pH (pH at equilibrium) ([2]; FeSSIF, initial pH 5.03): 5.03 ± 0.14
- decrease of Sco (cocrystal solubility) with pH ([2]; pH increases from 1.9 to 5.1): 20 times
